Patent US8372854B2, “Pyrrolo[2,3-D]pyrimidine compounds” (Pfizer Inc., priority 2009, dated 2013)

Assays:
Assay type in all cases: biochemical
[1] = biological target: T1, JAK3 (Homo sapiens, UniProt P52333); assay: JAK enzymatic assay (peptide mobility shift), JAK3; conditions: recombinant JAK3 1 nM, ATP 4 μM, 1 μM JAKtide peptide, 90 minutes
T1 construct: purchased Invitrogen Corporation, Madison, Wis; PV3855
T1 sequence (P52333 1-1124): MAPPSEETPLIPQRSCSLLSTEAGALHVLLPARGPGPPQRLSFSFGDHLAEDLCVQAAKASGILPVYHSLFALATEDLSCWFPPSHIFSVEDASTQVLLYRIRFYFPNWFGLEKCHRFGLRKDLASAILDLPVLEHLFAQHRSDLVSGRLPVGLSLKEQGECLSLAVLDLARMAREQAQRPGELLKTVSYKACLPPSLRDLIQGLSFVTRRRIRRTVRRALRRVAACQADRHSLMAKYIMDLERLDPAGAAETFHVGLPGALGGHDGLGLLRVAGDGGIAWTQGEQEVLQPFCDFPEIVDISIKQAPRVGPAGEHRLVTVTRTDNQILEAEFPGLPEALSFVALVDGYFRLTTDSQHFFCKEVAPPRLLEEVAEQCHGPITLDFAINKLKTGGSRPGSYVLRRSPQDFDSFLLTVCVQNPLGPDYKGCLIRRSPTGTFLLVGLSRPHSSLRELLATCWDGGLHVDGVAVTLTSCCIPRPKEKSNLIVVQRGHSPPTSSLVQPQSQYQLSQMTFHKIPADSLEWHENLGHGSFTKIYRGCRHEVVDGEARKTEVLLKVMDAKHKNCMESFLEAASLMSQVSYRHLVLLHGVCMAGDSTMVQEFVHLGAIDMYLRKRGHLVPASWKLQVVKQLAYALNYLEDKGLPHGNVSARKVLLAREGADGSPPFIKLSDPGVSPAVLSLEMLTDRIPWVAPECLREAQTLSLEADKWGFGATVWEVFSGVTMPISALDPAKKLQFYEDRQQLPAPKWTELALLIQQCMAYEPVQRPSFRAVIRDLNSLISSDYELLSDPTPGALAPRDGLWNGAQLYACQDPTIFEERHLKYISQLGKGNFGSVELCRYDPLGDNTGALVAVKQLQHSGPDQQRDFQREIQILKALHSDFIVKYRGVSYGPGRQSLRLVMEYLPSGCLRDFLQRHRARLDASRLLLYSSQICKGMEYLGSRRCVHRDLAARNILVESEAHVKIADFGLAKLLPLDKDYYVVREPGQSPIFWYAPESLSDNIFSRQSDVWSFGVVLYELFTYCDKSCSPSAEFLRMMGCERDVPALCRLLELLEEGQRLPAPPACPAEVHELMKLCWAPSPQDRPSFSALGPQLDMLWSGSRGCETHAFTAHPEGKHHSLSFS
Source text: Recombinant JAK1 (Catalog Number PV4775), JAK2 (Catalog Number PV4210) and JAK3 (Catalog Number PV3855) were purchased from (Invitrogen Corporation, Madison, Wis.). Tyk2 (His-Tyk2 (888-1182, C936S, C1142S)) used in this study was expressed and purified at Pfizer Laboratories. Adenosine 5′-triphosphate (ATP) was obtained from (Sigma Chemical Company, St. Louis, Mo.). […] Coating Reagent 3 was purchased from (Caliper Life Sciences, Hopkinton, Mass.).
(§1) A peptide mobility shift assay was used to quantify the phosphorylation of the JAKtide (JAK2 and JAK3) or the IRS-1 peptide ([…] and Tyk2). Reactions were carried out in a 384-well plate (Matrical MP-101) in a 10 μL total volume. Reaction mixtures contained 20 mM HEPES, pH 7.4, 10 mM magnesium chloride, 0.01% bovine serum albumin (BSA), 0.0005% Tween-20, ATP (4 μM for JAK2 and JAK3, 40 μM for JAK1 and 7 μM for Tyk2)), 2% DMSO and 1 μM peptide substrate (JAKtide for JAK2 and JAK3 and IRS-1 peptide for JAK1 and Tyk2). Compounds were diluted serially in 100% dimethyl sulfoxide and tested in an 11 point dose response in duplicate or quadruplicate (200 nl of compound/DMSO was added per 10 μL reaction). The reactions were initiated by the addition of enzyme to the final concentration of 2 nM JAK2, 1 nM JAK3, 12 nM Tyk2 or 20 nM JAK1. The assay was run for 240 minutes for JAK1, 150 minutes for JAK2, 90 minutes for JAK3 and 70 minutes for Tyk2. The assays were stopped at the specified times with 20 uL of 140 mM HEPES, 22.5 mM EDTA and 0.15% Coating Reagent 3. The plates were placed on a LabChip 3000 (LC3000) instrument from (Caliper Life Sciences) to measure the formation of phosphorylated peptide. Data was analyzed using Hits Well Analyzer Software from (Caliper Life Sciences) to obtain the amount of product formed.
(§2) Data was then imported into an internal application where each data point is expressed as % inhibition based on uninhibited and no enzyme controls. Dose-response data is then fit using a 4 parameter logistic equation (Equation 1) to determine an IC50.
(§3) Where max is the fitted uninhibited value, min is the fitted complete inhibition value, and s is the slope factor.

[2] = biological target: T2, JAK2 (Homo sapiens, UniProt O60674); assay: JAK enzymatic assay (peptide mobility shift), JAK2; conditions: recombinant JAK2 2 nM, ATP 4 μM, 1 μM JAKtide peptide, 150 minutes
T2 construct: purchased Invitrogen Corporation, Madison, Wis; PV4210
Source text: (§4) Recombinant JAK1 (Catalog Number PV4775), JAK2 (Catalog Number PV4210) and JAK3 (Catalog Number PV3855) were purchased from (Invitrogen Corporation, Madison, Wis.). Tyk2 (His-Tyk2 (888-1182, C936S, C1142S)) used in this study was expressed and purified at Pfizer Laboratories. Adenosine 5′-triphosphate (ATP) was obtained from (Sigma Chemical Company, St. Louis, Mo.). The JAKtide peptide (peptide sequence, FITC-[…]) used for the JAK2 and JAK3 assays and the IRS-1 peptide (peptide sequence, 5-FAM-[…]) used for the JAK1 and Tyk2 assays were purchased from (American Peptide Company, Sunnyvale, Calif.). Coating Reagent 3 was purchased from (Caliper Life Sciences, Hopkinton, Mass.).
as §1, §2, §3

[3] = biological target: T3, JAK1 (Homo sapiens, UniProt P23458); assay: JAK enzymatic assay (peptide mobility shift), JAK1; conditions: recombinant JAK1 20 nM, ATP 40 μM, 1 μM IRS-1 peptide, 240 minutes
T3 construct: purchased Invitrogen Corporation, Madison, Wis; PV4775
Source text: as §4, §1, §2, §3

T2 sequence (O60674 whole entry): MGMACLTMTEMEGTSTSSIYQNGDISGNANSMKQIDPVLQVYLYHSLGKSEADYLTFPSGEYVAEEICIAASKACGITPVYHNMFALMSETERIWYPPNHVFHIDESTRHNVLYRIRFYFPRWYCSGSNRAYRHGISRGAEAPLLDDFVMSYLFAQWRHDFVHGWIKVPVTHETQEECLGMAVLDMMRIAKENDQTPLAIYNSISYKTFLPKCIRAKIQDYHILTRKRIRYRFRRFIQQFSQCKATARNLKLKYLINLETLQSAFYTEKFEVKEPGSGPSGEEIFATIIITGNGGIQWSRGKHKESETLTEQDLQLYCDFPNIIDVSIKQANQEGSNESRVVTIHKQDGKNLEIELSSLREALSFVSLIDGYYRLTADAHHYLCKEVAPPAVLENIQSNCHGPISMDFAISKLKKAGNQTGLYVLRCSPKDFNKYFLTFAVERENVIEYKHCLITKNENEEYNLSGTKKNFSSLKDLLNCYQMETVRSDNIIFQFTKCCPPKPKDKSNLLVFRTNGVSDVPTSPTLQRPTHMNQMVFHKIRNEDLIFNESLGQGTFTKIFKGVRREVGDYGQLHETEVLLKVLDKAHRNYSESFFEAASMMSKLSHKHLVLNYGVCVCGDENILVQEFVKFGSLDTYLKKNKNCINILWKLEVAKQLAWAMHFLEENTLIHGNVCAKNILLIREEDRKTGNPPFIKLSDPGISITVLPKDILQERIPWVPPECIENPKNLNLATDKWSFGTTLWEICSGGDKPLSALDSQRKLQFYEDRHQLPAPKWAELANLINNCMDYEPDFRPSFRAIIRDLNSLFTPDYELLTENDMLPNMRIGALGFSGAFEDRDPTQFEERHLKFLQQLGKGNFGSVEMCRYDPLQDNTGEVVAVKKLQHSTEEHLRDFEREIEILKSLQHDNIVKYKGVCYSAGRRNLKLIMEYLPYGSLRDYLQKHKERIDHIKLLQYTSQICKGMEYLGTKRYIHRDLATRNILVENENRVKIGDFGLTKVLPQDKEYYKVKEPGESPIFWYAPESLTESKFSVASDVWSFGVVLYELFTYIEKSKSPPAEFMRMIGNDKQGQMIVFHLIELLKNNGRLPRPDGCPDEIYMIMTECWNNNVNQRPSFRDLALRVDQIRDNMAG
T3 sequence (P23458 whole entry): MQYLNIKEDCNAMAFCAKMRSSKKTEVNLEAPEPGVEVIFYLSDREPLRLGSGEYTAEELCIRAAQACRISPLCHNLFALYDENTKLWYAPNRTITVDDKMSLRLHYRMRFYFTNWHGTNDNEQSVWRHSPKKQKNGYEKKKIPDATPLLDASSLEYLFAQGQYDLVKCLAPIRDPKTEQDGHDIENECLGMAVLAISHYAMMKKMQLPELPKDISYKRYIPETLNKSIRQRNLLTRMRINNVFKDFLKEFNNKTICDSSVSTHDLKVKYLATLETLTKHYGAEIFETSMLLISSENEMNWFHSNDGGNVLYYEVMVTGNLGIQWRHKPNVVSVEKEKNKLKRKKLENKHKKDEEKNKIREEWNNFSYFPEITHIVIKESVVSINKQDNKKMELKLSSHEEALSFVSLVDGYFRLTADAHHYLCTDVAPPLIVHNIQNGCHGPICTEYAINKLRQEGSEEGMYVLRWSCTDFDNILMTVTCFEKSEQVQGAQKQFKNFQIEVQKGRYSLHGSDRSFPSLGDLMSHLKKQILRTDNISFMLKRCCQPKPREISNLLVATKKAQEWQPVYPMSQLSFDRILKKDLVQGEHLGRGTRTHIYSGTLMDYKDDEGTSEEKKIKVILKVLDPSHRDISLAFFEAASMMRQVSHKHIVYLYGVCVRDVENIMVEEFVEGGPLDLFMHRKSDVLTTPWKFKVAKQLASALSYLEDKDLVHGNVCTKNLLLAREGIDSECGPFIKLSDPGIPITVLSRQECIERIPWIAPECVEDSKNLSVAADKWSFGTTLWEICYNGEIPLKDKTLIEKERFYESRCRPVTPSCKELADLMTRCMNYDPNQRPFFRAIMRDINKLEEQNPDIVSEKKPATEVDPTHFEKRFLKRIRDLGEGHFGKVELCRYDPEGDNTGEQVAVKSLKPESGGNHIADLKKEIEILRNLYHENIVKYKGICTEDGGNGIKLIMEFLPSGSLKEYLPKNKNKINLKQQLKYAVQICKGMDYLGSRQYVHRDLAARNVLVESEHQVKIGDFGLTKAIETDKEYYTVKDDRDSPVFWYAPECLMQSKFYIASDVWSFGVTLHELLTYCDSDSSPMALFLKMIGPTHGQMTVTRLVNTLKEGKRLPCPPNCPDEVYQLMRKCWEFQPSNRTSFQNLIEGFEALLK

Structure (SMILES) | IC50 [1] [nM] | IC50 [2] [nM] | IC50 [3] [nM]
CN(c1ncnc2[nH]ccc12)[C@H]1CC[C@H](CS(=O)(=O)Nc2ccc3[nH]ncc3c2)CC1 [Example 26, N-1H-indazol-5-yl-1-{trans-4-[methyl(7H-pyrrolo[2,3-d]pyrimidin-4-yl)amino]-cyclohexyl}-methanesulfonamide] | 175 | 39.4 | 19
CN(c1ncnc2[nH]ccc12)[C@H]1CC[C@H](CS(=O)(=O)NCC(F)(F)c2ccccc2)CC1 [Example 6, N-(2,2-difluoro-2-phenyl-ethyl)-1-{trans-4-[methyl-(7H-pyrrolo[2,3-d]pyrimidin-4-yl)amino]cyclohexyl}-methanesulfonamide] | 101 | 11.8 | 4.22
CN(c1ncnc2[nH]ccc12)[C@H]1CC[C@H](CS(=O)(=O)NC2(Cc3ccccc3)CCC2)CC1 [Example 44, N-(1-benzylcyclobutyl)-1-{trans-4-[methyl(7H-pyrrolo-[2,3-d]pyrimidin-4-yl)amino]-cyclohexyl}methane-sulfonamide] | 641 | 112 | 15.1
CN(c1ncnc2[nH]ccc12)[C@H]1CC[C@H](CS(=O)(=O)NCC(C)(F)c2ccc(F)cc2)CC1 (stereo partly drawn) [Example 8, N-[2-fluoro-2-(4-fluoro-phenyl)propyl]-1-{trans-4-[methyl(7H-pyrrolo[2,3-d]-pyrimidin-4-yl)amino]-cyclohexyl}-methanesulfonamide] | 403 | 32.3 | 6.05
Cc1cc2cc(CNS(=O)(=O)C[C@H]3CC[C@H](N(C)c4ncnc5[nH]ccc45)CC3)ccc2[nH]1 [Example 34, N-[(2-methyl-1H-indol-5-yl)methyl]-1-{trans-4-[methyl(7H-pyrrolo[2,3-d]-pyrimidin-4-yl)amino]-cyclohexyl}-methanesulfonamide] | 224 | 24.7 | 6.76
CN(c1ncnc2[nH]ccc12)[C@H]1CC[C@H](CS(=O)(=O)Nc2ccc3[nH]ccc3c2)CC1 [Example 24, N-1H-indol-5-yl-1-{trans-4-[methyl(7H-pyrrolo[2,3-d]-pyrimidin-4-yl)amino]-cyclohexyl}-methanesulfonamide] | 55.8 | 4.55 | 1.65

Results, then the molecule that gave them:

IC50 [1] [nM] | IC50 [2] [nM] | IC50 [3] [nM] | Structure (SMILES)
332 | 44.2 | 16.3 | CN(CCO)S(=O)(=O)C[C@H]1CC[C@H](N(C)c2ncnc3[nH]ccc23)CC1 [Example 17, N-(2-hydroxyethyl)-N-methyl-1-{trans-4-[methyl-(7H-pyrrolo[2,3-d]pyrimidin-4-yl)amino]cyclohexyl}-methanesulfonamide]
174 | 27.5 | 7.33 | CN(C)S(=O)(=O)C[C@H]1CC[C@H](N(C)c2ncnc3[nH]ccc23)CC1 [Example 57, N,N-dimethyl((1r,4r)-4-(methyl(7H-pyrrolo[2,3-d]pyrimidin-4-yl)amino)-cyclohexyl)-methanesulfonamide]
633 | 80.6 | 21.6 | Cc1cccc(CCNS(=O)(=O)C[C@H]2CC[C@H](N(C)c3ncnc4[nH]ccc34)CC2)n1 [Example 50, N-[2-(6-methylpyridin-2-yl)ethyl]-1-{trans-4-[methyl(7H-pyrrolo[2,3-d]-pyrimidin-4-yl)amino]-cyclohexyl}-methanesulfonamide]
182 | 29.4 | 13.5 | CN(c1ncnc2[nH]ccc12)[C@H]1CC[C@H](CS(=O)(=O)NCc2ccccc2)CC1 [Example 16, N-benzyl-1-{trans-4-[methyl-(7H-pyrrolo[2,3-d]pyrimidin-4-yl)amino]-cyclohexyl}-methanesulfonamide]
257 | 28.6 | 2.25 | CN(c1ncnc2[nH]ccc12)[C@H]1CC[C@H](CS(=O)(=O)NCCc2ccc(O)cc2)CC1 [Example 3, N-[2-(4-hydroxyphenyl)-ethyl]-1-{trans-4-[methyl-(7H-pyrrolo[2,3-d]pyrimidin-4-yl)amino]cyclohexyl}-methanesulfonamide]
